Experimental data as given in PubChem BioAssay AID2060493 (Molecular Pharmacology Branch, DTP, NCI, 2025).

Test system: 616215-338-R-J1-PDC tumor spheroids, viability
Assay: Anticancer human tumor 616215-338-R-J1-PDC patient-derived colon adenocarcinoma cell line growth inhibition [GQUAD]
Conditions: spheroids with HUVEC and MSC; for IC50: curve of first compound; for viability, T/C: stronger effect = lower value
How it was run: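 Multi-cell-type spheroids of tumor cells with HUVEC and mesenchymal stem cells, treated with drug combinations. Concentrations descend in half-log steps from near clinical Cmax, or from 10 microM where Cmax is unknown; viability read-out.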

[1] = second compound 0.0316 µM, first compound 0.0316 µM
[2] = second compound 0.0316 µM, first compound 0.1 µM
[3] = second compound 0.0316 µM, first compound 0.316 µM
[4] = second compound 0.0316 µM, first compound 1 µM
[5] = second compound 0.0316 µM, first compound 3.16 µM
[6] = second compound 0.0316 µM, first compound 10 µM
[7] = second compound 0.1 µM, first compound 0.0316 µM
[8] = second compound 0.1 µM, first compound 0.1 µM
[9] = second compound 0.1 µM, first compound 0.316 µM
[10] = second compound 0.1 µM, first compound 1 µM
[11] = second compound 0.1 µM, first compound 3.16 µM
[12] = second compound 0.1 µM, first compound 10 µM
[13] = second compound 0.316 µM, first compound 0.0316 µM
[14] = second compound 0.316 µM, first compound 0.1 µM
[15] = second compound 0.316 µM, first compound 0.316 µM
[16] = second compound 0.316 µM, first compound 1 µM
[17] = second compound 0.316 µM, first compound 3.16 µM
[18] = second compound 0.316 µM, first compound 10 µM
[19] = second compound 1 µM, first compound 0.0316 µM
[20] = second compound 1 µM, first compound 0.1 µM
[21] = second compound 1 µM, first compound 0.316 µM
[22] = second compound 1 µM, first compound 1 µM
[23] = second compound 1 µM, first compound 3.16 µM
[24] = second compound 1 µM, first compound 10 µM
[25] = second compound 3.16 µM, first compound 0.0316 µM
[26] = second compound 3.16 µM, first compound 0.1 µM
[27] = second compound 3.16 µM, first compound 0.316 µM
[28] = second compound 3.16 µM, first compound 1 µM
[29] = second compound 3.16 µM, first compound 3.16 µM
[30] = second compound 3.16 µM, first compound 10 µM
[31] = second compound 10 µM, first compound 0.0316 µM
[32] = second compound 10 µM, first compound 0.1 µM
[33] = second compound 10 µM, first compound 0.316 µM
[34] = second compound 10 µM, first compound 1 µM
[35] = second compound 10 µM, first compound 3.16 µM
[36] = second compound 10 µM, first compound 10 µM
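Further: spheroids exposed to agents for 7 days before readout.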
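Wherever viability, T/C is given: percent viability relative to DMSO vehicle control wells taken as 100%.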

Q: Which results are given for C=CC(=O)N1CCN(c2nc(=O)n(-c3c(C)ccnc3C(C)C)c3nc(-c4c(O)cccc4F)c(F)cc23)C(C)C1 (centres undefined) + CN(C)c1ccc(Nc2c3ccc(NC(=O)CCN4CCCC4)cc3nc3cc(NC(=O)CCN4CCCC4)ccc23)cc1?
A: IC50 (second compound 0.0316 µM): > 10 µM; IC50 (second compound 0.1 µM): > 10 µM; IC50 (second compound 0.316 µM): > 10 µM; IC50 (second compound 1 µM): > 10 µM; IC50 (second compound 3.16 µM): > 10 µM; IC50 (second compound 10 µM): > 10 µM; viability, T/C [1]: 96.3%; viability, T/C [2]: 104%; viability, T/C [3]: 103%; viability, T/C [4]: 102%; viability, T/C [5]: 94.2%; viability, T/C [6]: 72%; viability, T/C [7]: 110%; viability, T/C [8]: 89.6%; viability, T/C [9]: 100%; viability, T/C [10]: 98%; viability, T/C [11]: 95.4%; viability, T/C [12]: 64.8%; viability, T/C [13]: 93%; viability, T/C [14]: 107%; viability, T/C [15]: 94.9%; viability, T/C [16]: 103%; viability, T/C [17]: 89%; viability, T/C [18]: 70.6%; viability, T/C [19]: 98.7%; viability, T/C [20]: 100%; viability, T/C [21]: 102%; viability, T/C [22]: 91.9%; viability, T/C [23]: 91.6%; viability, T/C [24]: 69.1%; viability, T/C [25]: 102%; viability, T/C [26]: 86.7%; viability, T/C [27]: 94.9%; viability, T/C [28]: 95%; viability, T/C [29]: 80.2%; viability, T/C [30]: 63.9%; viability, T/C [31]: 98.1%; viability, T/C [32]: 85.7%; viability, T/C [33]: 86.3%; viability, T/C [34]: 86.8%; viability, T/C [35]: 70.3%; viability, T/C [36]: 55.2%

Q: What does the source list for CC1COCCN1c1cc(C2(S(C)(=N)=O)CC2)nc(-c2ccnc3[nH]ccc23)n1 (centres undefined) + CN(C)c1ccc(Nc2c3ccc(NC(=O)CCN4CCCC4)cc3nc3cc(NC(=O)CCN4CCCC4)ccc23)cc1?
A: IC50 (second compound 0.0316 µM): 2.8 µM; IC50 (second compound 0.1 µM): 4.91 µM; IC50 (second compound 0.316 µM): 5.62 µM; IC50 (second compound 1 µM): 5.2 µM; IC50 (second compound 3.16 µM): 5.18 µM; IC50 (second compound 10 µM): 3.47 µM; viability, T/C [1]: 116%; viability, T/C [2]: 102%; viability, T/C [3]: 103%; viability, T/C [4]: 97.6%; viability, T/C [5]: 44.4%; viability, T/C [6]: 31.5%; viability, T/C [7]: 105%; viability, T/C [8]: 97%; viability, T/C [9]: 104%; viability, T/C [10]: 98%; viability, T/C [11]: 63.5%; viability, T/C [12]: 28.2%; viability, T/C [13]: 98.1%; viability, T/C [14]: 106%; viability, T/C [15]: 102%; viability, T/C [16]: 96.6%; viability, T/C [17]: 69.9%; viability, T/C [18]: 30.1%; viability, T/C [19]: 93.2%; viability, T/C [20]: 97.3%; viability, T/C [21]: 99.3%; viability, T/C [22]: 95.9%; viability, T/C [23]: 69.2%; viability, T/C [24]: 24.8%; viability, T/C [25]: 99%; viability, T/C [26]: 102%; viability, T/C [27]: 94.3%; viability, T/C [28]: 97.7%; viability, T/C [29]: 68.1%; viability, T/C [30]: 25.9%; viability, T/C [31]: 94%; viability, T/C [32]: 94%; viability, T/C [33]: 89.2%; viability, T/C [34]: 86.1%; viability, T/C [35]: 51.7%; viability, T/C [36]: 29.6%
